Consider 22 compounds from US20160207930A1 (LEO PHARMA A/S, priority 2013, published 2016).

The nature of series [1]: Hepatic intrinsic clearance following incubation in human liver microsomes. In kind it is in vitro ADME. The note with it: 0.5 μM test compound, NADPH, 0-30 min, scaled to g liver. In short, it runs like this: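 Compound incubated at 37° C with microsomes diluted to 0.55 mg/mL protein in 50 mM potassium phosphate pH 7.4 plus NADPH regenerating system; sampled 0–30 min and analysed by LC-MS/MS. Clint from ln(% parent remaining) slope, scaled to mL/min/g liver; Eh derived assuming 25.7 g/kg liver, 20.7 mL/min/kg blood flow.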

Another series deals with T1, NK1 Receptor (Homo sapiens, UniProt P25103).
T1 construct: Measurement of NK1 Receptor Mediated Intracellular [Ca^2+]; Mobilization in U251 MG Cells Using FLIPR; endogenous in cells; host or cells: U251 MG cells
T1 sequence (P25103 whole entry): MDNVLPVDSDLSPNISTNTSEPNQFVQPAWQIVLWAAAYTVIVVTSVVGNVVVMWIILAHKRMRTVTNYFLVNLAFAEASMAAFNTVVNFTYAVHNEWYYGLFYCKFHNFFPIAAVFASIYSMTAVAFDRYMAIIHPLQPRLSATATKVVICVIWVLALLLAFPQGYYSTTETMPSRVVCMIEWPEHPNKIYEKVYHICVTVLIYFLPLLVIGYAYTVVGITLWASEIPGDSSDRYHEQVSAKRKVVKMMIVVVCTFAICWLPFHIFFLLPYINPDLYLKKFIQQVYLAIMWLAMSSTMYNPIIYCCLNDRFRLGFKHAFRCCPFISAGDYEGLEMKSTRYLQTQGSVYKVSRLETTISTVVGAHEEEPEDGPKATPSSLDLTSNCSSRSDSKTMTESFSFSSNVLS
Kind of series: NK1 receptor mediated intracellular [Ca2+] mobilization in U251 MG cells using FLIPR. In kind it is cell-based. To be noted: antagonism of Substance P (EC80), Fluo-4, read-out: NK1R mediated intracellular [Ca^2+] mobilization IC 50. An outline of the steps:
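Fluo-4-loaded U251 MG cells preincubated with compound (0.5% DMSO final), checked 5 min for agonism, then 10 min at 37 °C before Substance P at EC80. Peak fluorescence change on FLIPR, normalized to 100 nM Aprepitant maximal response; IC50 by four-parameter logistic fit, reported as pIC50.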

The structures appear in SMILES notation.

For the compound `Cc1cccnc1[C@@H]1[C@@H]2CCC(=O)N2CCN1C(=O)N(C)[C@H](C)c1cc(C(F)(F)F)cc(C(F)(F)F)c1` [Compound 44, (1S,8aS)—N—((R)-1-(3,5-bis(trifluoromethyl)phenyl)ethyl)-N-methyl-1-(3-methylpyridin-2-yl)-6-oxo-hexahydropyrrolo[1,2-a]pyrazine-2(1H)-carboxamide], in series [1], the “Human in vitro Clint” value is more than 200 mL/min/g. Besides, the IC50 on NK1 Receptor was 100 nM.
In the case of `Cc1ccncc1[C@H]1[C@@H]2CCC(=O)N2CCN1C(=O)N(C)[C@H](C)c1cc(C(F)(F)F)cc(C(F)(F)F)c1` [Compound 45, (1S,8aS)—N—((R)-1-(3,5-bis(trifluoromethyl)phenyl)ethyl)-N-methyl-1-(4-methylpyridin-3-yl)-6-oxo-hexahydropyrrolo[1,2-a]pyrazine-2(1H)-carboxamide], the “Human in vitro Clint” value in series [1] was less than 10 mL/min/g. In addition, the IC50 at NK1 Receptor came to 0.772 nM.
Turning to `Cc1cnccc1[C@H]1[C@@H]2CCC(=O)N2CCN1C(=O)N(C)[C@H](C)c1cc(C(F)(F)F)cc(C(F)(F)F)c1` [Compound 46, (1S,8aS)—N—((R)-1-(3,5-bis(trifluoromethyl)phenyl)ethyl)-N-methyl-1-(3-methylpyridin-4-yl)-6-oxohexahydropyrrolo[1,2-a]pyrazine-2(1H)-carboxamide], in series [1], the “Human in vitro Clint” value was less than 10 mL/min/g. In addition, the IC50 on NK1 Receptor worked out at 0.167 nM.
`Cc1cscc1[C@H]1[C@@H]2CCC(=O)N2CCN1C(=O)N(C)[C@H](C)c1cc(C(F)(F)F)cc(C(F)(F)F)c1` [Compound 48]: the “Human in vitro Clint” value in series [1] was more than 200 mL/min/g. The IC50 at NK1 Receptor is 0.249 nM.
Consider `CCc1cc([C@@H](C)N(C)C(=O)N2CCN3C(=O)CC[C@H]3[C@@H]2c2cscc2C)cc(C(F)(F)F)c1` [Compound 49, (1S,8aS)—N—((R)-1-(3-ethyl-5-(trifluoromethyl)phenyl)ethyl)-N-methyl-1-(4-methylthiophen-3-yl)-6-oxohexahydropyrrolo[1,2-a]pyrazine-2(1H)-carboxamide], for which, in series [1], the “Human in vitro Clint” value was more than 200 mL/min/g. Also, the IC50 on NK1 Receptor was 0.999 nM.
On the same counts, the results for `Cc1ccsc1[C@H]1[C@@H]2CCC(=O)N2CCN1C(=O)N(C)[C@H](C)c1cc(C(F)(F)F)cc(C(F)(F)F)c1` [Compound 50] are more than 200 mL/min/g and 0.08 nM.
For the compound `CCc1cc([C@@H](C)N(C)C(=O)N2CCN3C(=O)CC[C@H]3[C@@H]2c2sccc2C)cc(C(F)(F)F)c1` [Compound 51, (1R,8aS)—N—((R)-1-(3-ethyl-5-(trifluoromethyl)phenyl)ethyl)-N-methyl-1-(3-methylthiophen-2-yl)-6-oxohexahydropyrrolo[1,2-a]pyrazine-2(1H)-carboxamide], in series [1], the “Human in vitro Clint” value was more than 200 mL/min/g. Besides, on NK1 Receptor, the IC50 amounted to 0.055 nM.
Consider `Cc1cc([C@@H](C)N(C)C(=O)N2CCN3C(=O)CC[C@H]3[C@@H]2c2sccc2C)cc(C(F)(F)F)c1` [Compound 52, (1R,8aS)—N-methyl-N—((R)-1-(3-methyl-5-(trifluoromethyl)phenyl)ethyl)-1-(3-methylthiophen-2-yl)-6-oxohexahydropyrrolo[1,2-a]pyrazine-2(1H)-carboxamide], for which the “Human in vitro Clint” value in series [1] was more than 200 mL/min/g. For the same compound, the IC50 on NK1 Receptor was 0.353 nM.
Turning to `C[C@H](c1cc(C(F)(F)F)cc(C(F)(F)F)c1)N(C)C(=O)N1CCN2C(=O)CC[C@H]2[C@@H]1c1cccs1` [Compound 53, (1R,8aS)—N—((R)-1-(3,5-bis(trifluoromethyl)phenyl)ethyl)-N-methyl-6-oxo-1-(thiophen-2-yl)hexahydropyrrolo[1,2-a]pyrazine-2(1H)-carboxamide], the “Human in vitro Clint” value in series [1] was more than 200 mL/min/g. For the same compound, the IC50 on NK1 Receptor turned out to be 0.43 nM.
Turning to `CCc1cc([C@@H](C)N(C)C(=O)N2CCN3C(=O)CC[C@H]3[C@@H]2c2cccs2)cc(C(F)(F)F)c1` [Compound 54, (1R,8aS)—N—((R)-1-(3-ethyl-5-(trifluoromethyl)phenyl)ethyl)-N-methyl-6-oxo-1-(thiophen-2-yl)hexahydropyrrolo[1,2-a]pyrazine-2(1H)-carboxamide], the “Human in vitro Clint” value in series [1] was more than 200 mL/min/g. Further, the IC50 at NK1 Receptor came out at 0.514 nM.
As to `Cc1cc([C@@H](C)N(C)C(=O)N2CCN3C(=O)CC[C@H]3[C@@H]2c2ccsc2C)cc(C(F)(F)F)c1` [Compound 55, (1S,8aS)—N-methyl-N—((R)-1-(3-methyl-5-(trifluoromethyl)phenyl)ethyl)-1-(2-methylthiophen-3-yl)-6-oxohexahydropyrrolo[1,2-a]pyrazine-2(1H)-carboxamide], in series [1], the “Human in vitro Clint” value is more than 200 mL/min/g. Also, on NK1 Receptor, the IC50 worked out at 1.58 nM.
For `CCc1cc([C@@H](C)N(C)C(=O)N2CCN3C(=O)CC[C@H]3[C@@H]2c2ccsc2C)cc(C(F)(F)F)c1` [Compound 56, (1S,8aS)—N—((R)-1-(3-ethyl-5-(trifluoromethyl)phenyl)ethyl)-N-methyl-1-(2-methylthiophen-3-yl)-6-oxohexahydropyrrolo[1,2-a]pyrazine-2(1H)-carboxamide], in series [1], the “Human in vitro Clint” value was more than 200 mL/min/g. The IC50 on NK1 Receptor was found to be 1.51 nM.
The like results for `Cc1sccc1[C@H]1[C@@H]2CCC(=O)N2CCN1C(=O)N(C)[C@H](C)c1cc(C(F)(F)F)cc(C(F)(F)F)c1` [Compound 57, (1S,8aS)—N—((R)-1-(3,5-bis(trifluoromethyl)phenyl)ethyl)-N-methyl-1-(2-methylthiophen-3-yl)-6-oxohexahydropyrrolo[1,2-a]pyrazine-2(1H)-carboxamide] were, in that order, more than 200 mL/min/g and 0.152 nM.
For the compound `Cc1ncc([C@H]2[C@@H]3CCC(=O)N3CCN2C(=O)N(C)[C@H](C)c2cc(C(F)(F)F)cc(C(F)(F)F)c2)s1` [Compound 58, (1R,8aS)—N—((R)-1-(3,5-bis(trifluoromethyl)phenyl)ethyl)-N-methyl-1-(2-methylthiazol-5-yl)-6-oxohexahydropyrrolo[1,2-a]pyrazine-2(1H)-carboxamide], the “Human in vitro Clint” value in series [1] was more than 200 mL/min/g. Besides, the IC50 at NK1 Receptor stood at 28.6 nM.
Regarding `C[C@H](c1cc(C(F)(F)F)cc(C(F)(F)F)c1)N(C)C(=O)N1CCN2C(=O)CC[C@H]2[C@@H]1c1cncs1` [Compound 59, (1R,8aS)—N—((R)-1-(3,5-bis(trifluoromethyl)phenyl)ethyl)-N-methyl-6-oxo-1-(thiazol-5-yl)-hexahydropyrrolo[1,2-a]pyrazine-2(1H)-carboxamide], the “Human in vitro Clint” value in series [1] was more than 200 mL/min/g. In addition, the IC50 on NK1 Receptor stood at 29.4 nM.
Turning to `CCc1cc([C@@H](C)N(C)C(=O)N2CCN3C(=O)CC[C@H]3[C@@H]2c2c[nH]nc2C)cc(C(F)(F)F)c1` [Compound 61, (1S,8aS)—N—((R)-1-(3-ethyl-5-(trifluoromethyl)phenyl)ethyl)-N-methyl-1-(3-methyl-1H-pyrazol-4-yl)-6-oxohexahydropyrrolo[1,2-a]pyrazine-2(1H)-carboxamide], the “Human in vitro Clint” value in series [1] was more than 200 mL/min/g. The IC50 at NK1 Receptor came out at 59 nM.
For `CCc1cc([C@@H](C)N(C)C(=O)N2CCN3C(=O)C(CCO)(CCO)C[C@H]3[C@@H]2c2c[nH]nc2C)cc(C(F)(F)F)c1` [Compound 62, (1S,8aS)—N—((R)-1-(3-ethyl-5-(trifluoromethyl)phenyl)ethyl)-7,7-bis(2-hydroxyethyl)-N-methyl-1-(3-methyl-1H-pyrazol-4-yl)-6-oxohexahydropyrrolo[1,2-a]pyrazine-2(1H)-carboxamide], the “Human in vitro Clint” value in series [1] came to 115 mL/min/g. The IC50 on NK1 Receptor stood at 1.07 nM.
On the same counts, the results for `Cc1cc([C@@H](C)N(C)C(=O)N2CCN3C(=O)C(CCO)(CCO)C[C@H]3[C@@H]2c2c[nH]nc2C)cc(C(F)(F)F)c1` [Compound 63, (1S,8aS)-7,7-bis(2-hydroxyethyl)-N-methyl-1-(3-methyl-1H-pyrazol-4-yl)-N—((R)-1-(3-methyl-5-(trifluoromethyl)phenyl)ethyl)-6-oxo-hexahydropyrrolo[1,2-a]pyrazine-2(1H)-carboxamide] are 51 mL/min/g and 9.29 nM.
The like results for `Cc1nn(C)cc1[C@H]1[C@@H]2CCC(=O)N2CCN1C(=O)N(C)[C@H](C)c1cc(C(F)(F)F)cc(C(F)(F)F)c1` [Compound 64, (1S,8aS)—N—((R)-1-(3,5-bis(trifluoromethyl)phenyl)ethyl)-1-(1,3-dimethyl-1H-pyrazol-4-yl)-N-methyl-6-oxohexahydropyrrolo[1,2-a]pyrazine-2(1H)-carboxamide] were, in that order, 67 mL/min/g and 1.23 nM.
Consider `Cc1cc([C@@H](C)N(C)C(=O)N2CCN3C(=O)CC[C@H]3[C@@H]2c2cccc(C)c2C)cc(C(F)(F)F)c1` [Compound 65], for which the “Human in vitro Clint” value in series [1] is more than 200 mL/min/g. Moreover, the IC50 on NK1 Receptor was 0.365 nM.
`Cc1c(Cl)cccc1[C@H]1[C@@H]2CCC(=O)N2CCN1C(=O)N(C)[C@H](C)c1cc(C(F)(F)F)cc(C(F)(F)F)c1` [Compound 66, (1S,8aS)—N—((R)-1-(3,5-bis(trifluoromethyl)phenyl)ethyl)-1-(3-chloro-2-methylphenyl)-N-methyl-6-oxohexahydropyrrolo[1,2-a]pyrazine-2(1H)-carboxamide]: the “Human in vitro Clint” value in series [1] turned out to be 51 mL/min/g. Also, the IC50 on NK1 Receptor is 0.14 nM.
On the same counts, the results for `CCc1ccccc1[C@H]1[C@@H]2CCC(=O)N2CCN1C(=O)N(C)[C@H](C)c1cc(C(F)(F)F)cc(C(F)(F)F)c1` [Compound 68, N—((R)-1-(3,5-bis(trifluoromethyl)phenyl)ethyl)-1-(2-ethylphenyl)-N-methyl-6-oxohexahydropyrrolo[1,2-a]pyrazine-2(1H)-carboxamide] are more than 200 mL/min/g and 0.26 nM.
